Read-outs that look alike come from different tables or passages of the source.
Key:
[1] = system: peritoneal pain caused by phenylbenzoquinone (PBQ); assay: Peripheral analgesic activity (phenylbenzoquinone peritoneal pain); format: in vivo, mice; settings: Mus musculus, 0.5 h, read-out: Peripheral analgesic activity ED50
Excerpt: E-Peripheral analgesic activity
A peritoneal pain is caused in mice by the intraperitoneal injection of phenylbenzoquinone (PBQ). The test tries to measure the decrease in the pain syndrome, characterized by an abdominal twisting movement, which is caused by injecting the test product thirty minutes before the administration of PBQ.

histamine [2] = assay: Bronchospasm by inhalation of a histamine solution; format: in vivo, guinea-pigs; settings: for ED50: Cavia porcellus, 0.5 h, read-out: Bronchospasm ED50
Procedure: F-Bronchospasm by inhalation of a histamine solution
Guinea-pigs are placed in a closed chamber into which histamine is introduced as an aerosol, and only those which show very distinct signs of asphyxia within four minutes are selected.
The substance to be studied is administered to groups of guinea-pigs thirty minutes before a further period in the chamber in order to check the resistance to histamine. A guinea-pig is considered to be protected if it resists the histamine aerosol for ten minutes without showing signs of asphyxia.
A 50% effective dose is calculated from the results obtained.

histamine [3] = assay: animal or person; format: in vivo, guinea-pigs; settings: Cavia porcellus, 0.5 h, read-out: Histaminic shock ED50
in vivo = settings: mouse, ip
[4] = system: sleep induced by pentobarbital; assay: animal or person; format: in vivo, mice; settings: ip
mice [5] = assay: Study of the spontaneous motility (motor activity), photoelectric actimeter; format: in vivo; settings: mouse, at 25 mg.kg^-1 i.p.
mice [6] = assay: Exploration behavior (hole-board); format: in vivo; settings: Mus musculus, ip, 0.5 h, read-out: Exploration behavior ED50
Excerpt: Thirty minutes after the intraperitoneal administration of the derivatives according to the invention, each mouse is placed on an automated hole-board for five minutes and the number of holes explored is noted every minute.
(§1) A 50% effective dose can be calculated from the results obtained.

mice [7] = assay: Muscle-relaxing action (traction test); format: in vivo; settings: Mus musculus, ip, read-out: Muscle-relaxing action - Traction test ED50
Excerpt: C-Muscle-relaxing action (traction test)
This test assesses the presence or absence of redressments in a mouse brought up to a horizontal wire with its front paws.
The number of mice which are unable to grip the wire with one of their back paws within five seconds are noted.
as §1

CS(=O)(=O)O.CS(=O)(=O)O.O=C1c2ccccc2C(=O)N1CCN1CCN(CCOC(c2ccccc2)c2ccccc2)CC1 [Derivative 2, 1-[2-(Benzhydryloxy)ethyl]-4-[2-(phthalimido)-ethyl]piperazine dimethanesulfonate] showed an ED50 ([1]; ip) of 3.12 mg/kg, an ED50 (histamine [2]; ip) of 3.67 mg/kg and an ED50 (histamine [3]; ip) of 2.03 mg/kg. It also gave an LD50 (in vivo) of 211 mg/kg.

O=C1c2ccccc2C(=O)N1CCCCN1CCN(CCOC(c2ccccc2)c2ccccc2)CC1 [Derivative 19] gave an ED50 ([1]; ip) of 1.56 mg/kg, an ED50 (histamine [2]; po) of 5.34 mg/kg and an ED50 (histamine [3]; po) of 2.2 mg/kg. The LD50 (in vivo) was 133 mg/kg.

In the case of O=C1CCC(=O)N1CCN1CCN(CCOC(c2ccccc2)c2ccccc2)CC1 [Derivative 22], the ED50 ([1]; po) was 35 mg/kg, the ED50 (histamine [2]; ip) was 3.96 mg/kg and the ED50 (histamine [3]; ip) was 3.25 mg/kg. For the same compound, the LD50 (in vivo) was 146 mg/kg.

O=c1n(CCN2CCN(CCOC(c3ccccc3)c3ccccc3)CC2)c2ccccc2n1Cc1ccccc1 [Derivative 32] gave a Bronchospasm (histamine [2]; guinea pig, in vivo, po) of 33%, an ED50 (histamine [3]; po) of 2.3 mg/kg and an LD50 (in vivo) of 400 mg/kg.

For O=C(NCCN1CCN(CCOC(c2ccccc2)c2ccccc2)CC1)c1ccccc1[N+](=O)[O-] [Derivative 49], the Interaction with pentobarbital ([4]; mouse, in vivo) was “no interaction”, the ED50 ([1]; sc) was 2.6 mg/kg and the ED50 (histamine [2]; po) was 3.12 mg/kg. It also gave an LD50 (in vivo) of 131 mg/kg.

For CC(C)(C)c1ccc(C(O)CCCN2CCC(C(O)(c3ccccc3)c3ccccc3)CC2)cc1 (stereo not shown) [Terfenadine, reference compound], the Motor activity (mice [5]) was “Significant decrease”, the ED50 (mice [6]) was 37 mg/kg and the ED50 (mice [7]) was 31 mg/kg. For the same compound, the ED50 ([4]; Mus musculus, read-out: Interaction with pentobarbital ED50) was 25 mg/kg, the ED50 ([1]; ip) was 3.1 mg/kg and the LD50 (in vivo) was 100 mg/kg.
